This is an account of results in patent US20250122191A1, “COMPOUNDS AS BCL-2 INHIBITORS” (Fochon Biosciences, Ltd, priority 2021, published 2025).

What all share (type): cell-based
The test system of one experiment is Toledo cells. Nature of the experiment: Cell proliferation assay (MTS), Toledo cells. The conditions noted are these: 72 h. The essentials:
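Toledo cells (RPMI-1640, 10% FBS) seeded at 30000 cells/well, rested 4 h, then exposed 72 h at 37 °C, 5% CO2 to compound at nine final concentrations, 1.5–10000 nM. Viability by MTS (2 h), absorbance at 490 nm. IC50 from the concentration-response.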

For another experiment, the system named is RS4;11-BCL-2 G101V cells. The experiment in a line: Cell proliferation assay (MTS), RS4;11-BCL-2 G101V engineered cells. The conditions noted are these: 120 h, read-out: RS4, 11 BCL2-G101V IC50. An outline of the steps:
(§1)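 Inhibition of mutant BCL-2 is inferred from reduced proliferation of RS4;11 cells stably overexpressing the mutant. Compounds are tested at 1.5–10000 nM for 120 h (G101V, F104L) or 72 h (D103E, D103Y), with MTS absorbance at 490 nm used to derive IC50.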

For a further experiment, the system named is RS4;11-BCL-2 F104L cells. The experiment in a line: Cell proliferation assay (MTS), RS4;11-BCL-2 F104L engineered cells. The conditions noted are these: 120 h, read-out: RS4, 11 BCL2-F104L IC50. An outline of the steps:
as §1

A further experiment relates to RS4;11-BCL-2 D103E cells. Nature of the experiment: Cell proliferation assay (MTS), RS4;11-BCL-2 D103E engineered cells. As to conditions: Homo sapiens, 72 h, read-out: RS4, 11 BCL2-D103E IC50. The essentials: as §1

Where two headings read alike, the source gives them in different places.

In the case of `COc1nc2[nH]cc(F)c2cc1Oc1cc(N2CCC3(CC2)CC(N2CCN(C[C@@H]4COCCO4)C[C@H]2c2ccccc2C(C)C)C3)ccc1C(=O)NS(=O)(=O)c1cnc(NC[C@H]2CC[C@](C)(O)CC2)c([N+](=O)[O-])c1` [Example 334, 4-(2-((R)-4-(((R)-1,4-dioxan-2-yl)methyl)-2-(2-isopropylphenyl)piperazin-1-yl)-7-azaspiro[3.5]nonan-7-yl)-2-((3-fluoro-6-methoxy-1H-pyrrolo[2,3-b]pyridin-5-yl)oxy)-N-((6-((((1r,4r)-4-hydroxy-4-methylcyclohexyl)methyl)amino)-5-nitropyridin-3-yl)sulfonyl)benzamide], the half-inhibitory concentration (IC50) in the experiment with Toledo cells (Homo sapiens), in the experiment on RS4;11-BCL-2 G101V cells (Homo sapiens), in the experiment on RS4;11-BCL-2 F104L cells (Homo sapiens) and in the experiment on RS4;11-BCL-2 D103E cells was 1 nM in each case.

Consider `COc1nc2[nH]cc(F)c2cc1Oc1cc(N2CCC3(CC2)CC(N2CCN(Cc4ccnc(OCCO)c4)C[C@H]2c2ccccc2C(C)C)C3)ccc1C(=O)NS(=O)(=O)c1cnc(NC[C@H]2CC[C@](C)(O)CC2)c([N+](=O)[O-])c1` [Example 64, 2-((3-fluoro-6-methoxy-1H-pyrrolo[2,3-b]pyridin-5-yl)oxy)-N-((6-((((1r,4r)-4-hydroxy-4-methylcyclohexyl)methyl)amino)-5-nitropyridin-3-yl)sulfonyl)-4-(2-((R)-4-((2-(2-hydroxyethoxy)pyridin-4-yl)methyl)-2-(2-isopropylphenyl)piperazin-1-yl)-7-azaspiro[3.5]nonan-7-yl)benzamide], for which the IC50 in the experiment with RS4;11-BCL-2 G101V cells (Homo sapiens) was 1 nM; in the experiment with RS4;11-BCL-2 F104L cells (Homo sapiens), 3 nM; in the experiment on RS4;11-BCL-2 D103E cells, 1 nM.

Consider `CC(C)c1ccccc1[C@@H]1CN(Cc2ccncc2)CCN1C1CC2(CCN(c3ccc(C(=O)NS(=O)(=O)c4cnc(NC[C@H]5CC[C@](C)(O)CC5)c([N+](=O)[O-])c4)c(Oc4cnc5[nH]cc(F)c5c4)c3)CC2)C1` [Example 240, 2-((3-fluoro-1H-pyrrolo[2,3-b]pyridin-5-yl)oxy)-N-((6-((((1r,4r)-4-hydroxy-4-methylcyclohexyl)methyl)amino)-5-nitropyridin-3-yl)sulfonyl)-4-(2-((R)-2-(2-isopropylphenyl)-4-(pyridin-4-ylmethyl)piperazin-1-yl)-7-azaspiro[3.5]nonan-7-yl)benzamide], for which the IC50 with Toledo cells (Homo sapiens) came out at 1 nM; in the experiment with RS4;11-BCL-2 G101V cells (Homo sapiens), 1 nM; in the experiment on RS4;11-BCL-2 F104L cells (Homo sapiens), 1 nM; with RS4;11-BCL-2 D103E cells, 3 nM.

As for `COc1nc2[nH]cc(F)c2cc1Oc1cc(N2CCC3(CC2)CC(N2CCN(Cc4ccc(S(C)(=O)=O)cc4)C[C@H]2c2ccccc2C(C)C)C3)ccc1C(=O)NS(=O)(=O)c1cnc(NC[C@H]2CC[C@](C)(O)CC2)c([N+](=O)[O-])c1` [Example 327, 2-((3-fluoro-6-methoxy-1H-pyrrolo[2,3-b]pyridin-5-yl)oxy)-N-((6-((((1r,4r)-4-hydroxy-4-methylcyclohexyl)methyl)amino)-5-nitropyridin-3-yl)sulfonyl)-4-(2-((R)-2-(2-isopropylphenyl)-4-(4-(methylsulfonyl)benzyl)piperazin-1-yl)-7-azaspiro[3.5]nonan-7-yl)benzamide], the IC50 in the experiment with Toledo cells (Homo sapiens), with RS4;11-BCL-2 F104L cells (Homo sapiens) and in the experiment with RS4;11-BCL-2 D103E cells was 1 nM throughout.

Regarding `COc1nc2[nH]cc(F)c2cc1Oc1cc(N2CCC3(CC2)CC(N2CCN(C(C)C)C[C@H]2c2ccccc2C(C)C)C3)ccc1C(=O)NS(=O)(=O)c1cnc(NC[C@H]2CC[C@](C)(O)CC2)c([N+](=O)[O-])c1` [Example 99, 2-((3-fluoro-6-methoxy-1H-pyrrolo[2,3-b]pyridin-5-yl)oxy)-N-((6-((((1r,4r)-4-hydroxy-4-methylcyclohexyl)methyl)amino)-5-nitropyridin-3-yl)sulfonyl)-4-(2-((R)-4-isopropyl-2-(2-isopropylphenyl)piperazin-1-yl)-7-azaspiro[3.5]nonan-7-yl)benzamide], the IC50 with RS4;11-BCL-2 G101V cells (Homo sapiens), in the experiment on RS4;11-BCL-2 F104L cells (Homo sapiens) and in the experiment with RS4;11-BCL-2 D103E cells was 1 nM in each case.

Consider `COc1cc(CN2CCN(C3CC4(CCN(c5ccc(C(=O)NS(=O)(=O)c6cnc(NC[C@H]7CC[C@](C)(O)CC7)c([N+](=O)[O-])c6)c(Oc6cc7c(F)c[nH]c7nc6OC)c5)CC4)C3)[C@H](c3ccccc3C(C)C)C2)cc(OC)n1` [Example 62, 4-(2-((R)-4-((2,6-dimethoxypyridin-4-yl)methyl)-2-(2-isopropylphenyl)piperazin-1-yl)-7-azaspiro[3.5]nonan-7-yl)-2-((3-fluoro-6-methoxy-1H-pyrrolo[2,3-b]pyridin-5-yl)oxy)-N-((6-((((1r,4r)-4-hydroxy-4-methylcyclohexyl)methyl)amino)-5-nitropyridin-3-yl)sulfonyl)benzamide], for which the IC50 in the experiment on RS4;11-BCL-2 G101V cells (Homo sapiens), with RS4;11-BCL-2 F104L cells (Homo sapiens) and with RS4;11-BCL-2 D103E cells was 1 nM throughout.

For the compound `COc1cc(CN2CCN(C3CC4(CCN(c5ccc(C(=O)NS(=O)(=O)c6cnc(NC[C@H]7CC[C@](C)(O)CC7)c([N+](=O)[O-])c6)c(Oc6cc7c(F)c[nH]c7nc6OC)c5)CC4)C3)[C@H](c3ccccc3C(C)C)C2)cc(Cl)n1` [Example 54, 4-(2-((R)-4-((2-chloro-6-methoxypyridin-4-yl)methyl)-2-(2-isopropylphenyl)piperazin-1-yl)-7-azaspiro [3.5]nonan-7-yl)-2-((3-fluoro-6-methoxy-1H-pyrrolo[2,3-b]pyridin-5-yl)oxy)-N-((6-((((1r,4r)-4-hydroxy-4-methylcyclohexyl)methyl)amino)-5-nitropyridin-3-yl)sulfonyl)benzamide], the IC50 in the experiment with RS4;11-BCL-2 G101V cells (Homo sapiens), in the experiment with RS4;11-BCL-2 F104L cells (Homo sapiens) and in the experiment on RS4;11-BCL-2 D103E cells was 1 nM each time.

As to `COc1nc(CN2CCN(C3CC4(CCN(c5ccc(C(=O)NS(=O)(=O)c6cnc(NC[C@H]7CC[C@](C)(O)CC7)c([N+](=O)[O-])c6)c(Oc6cnc7[nH]cc(F)c7c6)c5)CC4)C3)[C@H](c3ccccc3C(C)C)C2)ccc1C1CC1` [Example 291, 4-(2-((R)-4-((5-cyclopropyl-6-methoxypyridin-2-yl)methyl)-2-(2-isopropylphenyl)piperazin-1-yl)-7-azaspiro[3.5]nonan-7-yl)-2-((3-fluoro-1H-pyrrolo[2,3-b]pyridin-5-yl)oxy)-N-((6-((((1r,4r)-4-hydroxy-4-methylcyclohexyl)methyl)amino)-5-nitropyridin-3-yl)sulfonyl)benzamide], the half-maximal inhibitory concentration (IC50) in the experiment on Toledo cells (Homo sapiens), in the experiment on RS4;11-BCL-2 F104L cells (Homo sapiens) and with RS4;11-BCL-2 D103E cells was 1 nM throughout.

Take `CC(C)c1ccccc1[C@@H]1CN(Cc2ccc(C#N)cc2)CCN1C1CC2(CCN(c3ccc(C(=O)NS(=O)(=O)c4cnc(NC[C@H]5CC[C@](C)(O)CC5)c([N+](=O)[O-])c4)c(Oc4cnc5[nH]cc(F)c5c4)c3)CC2)C1` [Example 237, 4-(2-((R)-4-(4-cyanobenzyl)-2-(2-isopropylphenyl)piperazin-1-yl)-7-azaspiro[3.5]nonan-7-yl)-2-((3-fluoro-1H-pyrrolo[2,3-b]pyridin-5-yl)oxy)-N-((6-((((1r,4r)-4-hydroxy-4-methylcyclohexyl)methyl)amino)-5-nitropyridin-3-yl)sulfonyl)benzamide]: the IC50 with Toledo cells (Homo sapiens), in the experiment with RS4;11-BCL-2 G101V cells (Homo sapiens), in the experiment with RS4;11-BCL-2 F104L cells (Homo sapiens) and in the experiment with RS4;11-BCL-2 D103E cells was 1 nM throughout.

Regarding `CC(C)c1ccccc1[C@@H]1CN(Cc2ccc3c(c2)CCO3)CCN1C1CC2(CCN(c3ccc(C(=O)NS(=O)(=O)c4cnc(NC[C@H]5CC[C@](C)(O)CC5)c([N+](=O)[O-])c4)c(Oc4cnc5[nH]cc(F)c5c4)c3)CC2)C1` [Example 324, 4-(2-((R)-4-((2,3-dihydrobenzofuran-5-yl)methyl)-2-(2-isopropylphenyl)piperazin-1-yl)-7-azaspiro[3.5]nonan-7-yl)-2-((3-fluoro-1H-pyrrolo[2,3-b]pyridin-5-yl)oxy)-N-((6-((((1r,4r)-4-hydroxy-4-methylcyclohexyl)methyl)amino)-5-nitropyridin-3-yl)sulfonyl)benzamide], the IC50 in the experiment with Toledo cells (Homo sapiens), in the experiment with RS4;11-BCL-2 G101V cells (Homo sapiens), in the experiment with RS4;11-BCL-2 F104L cells (Homo sapiens) and in the experiment with RS4;11-BCL-2 D103E cells was 1 nM throughout.

Consider `COc1cc(CN2CCN(C3CC4(CCN(c5ccc(C(=O)NS(=O)(=O)c6cnc(NC[C@H]7CC[C@](C)(O)CC7)c([N+](=O)[O-])c6)c(Oc6cc7c(F)c[nH]c7nc6OC)c5)CC4)C3)[C@H](c3ccccc3C(C)C)C2)cc(F)n1` [Example 53, 2-((3-fluoro-6-methoxy-1H-pyrrolo[2,3-b]pyridin-5-yl)oxy)-4-(2-((R)-4-((2-fluoro-6-methoxypyridin-4-yl)methyl)-2-(2-isopropylphenyl)piperazin-1-yl)-7-azaspiro[3.5]nonan-7-yl)-N-((6-((((1r,4r)-4-hydroxy-4-methylcyclohexyl)methyl)amino)-5-nitropyridin-3-yl)sulfonyl)benzamide], for which the IC50 in the experiment on RS4;11-BCL-2 G101V cells (Homo sapiens), with RS4;11-BCL-2 F104L cells (Homo sapiens) and in the experiment on RS4;11-BCL-2 D103E cells was 1 nM each time.

Regarding `CC(C)c1ccccc1[C@@H]1CN(Cc2ccc(Cl)cc2)CCN1C1CC2(CCN(c3ccc(C(=O)NS(=O)(=O)c4cnc(NCC5CCC(C)(O)CC5)c([N+](=O)[O-])c4)c(Oc4cnc5[nH]cc(F)c5c4)c3)CC2)C1` (stereo partly drawn) [Example 229, 4-(2-((R)-4-(4-chlorobenzyl)-2-(2-isopropylphenyl)piperazin-1-yl)-7-azaspiro[3.5]nonan-7-yl)-2-((3-fluoro-1H-pyrrolo[2,3-b]pyridin-5-yl)oxy)-N-((6-((((1r,4r)-4-hydroxy-4-methylcyclohexyl)methyl)amino)-5-nitropyridin-3-yl)sulfonyl)benzamide], the IC50 with Toledo cells, in the experiment on RS4;11-BCL-2 G101V cells and in the experiment with RS4;11-BCL-2 F104L cells was 1 nM each time.
